Test results reported in patent publication US7432260B2, “Pyrimidine compounds” (Cyclacel Limted, priority 2002, dated 2008).
Where two headings read alike, the source gives them in different places.

Experiments:
CDK1/cyclin B = CDK1/cyclin B (Homo sapiens, UniProt P06493); test: Kinase assay CDK1/cyclin B; assay type: biochemical
Method in brief: (§1)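 Enzyme + substrate in β-glycerophosphate/MOPS/EGTA/DTT buffer, pH 7.4 → Mg/ATP (100 μM ATP, γ-32P) start → 30° C incubation → ice stop → P81 or GF/C filtration, H3PO4 wash → scintillation count.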

CDK7/cyclin H = CDK7/cyclin H (Homo sapiens, UniProt P50613); test: CDK7 assay; assay type: biochemical
Method in brief: (§2)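 Recombinant human CDK7/cyclin H or CDK9/cyclin T1 (0.5–2 μg) phosphorylated biotinylated CTD heptapeptide-repeat substrate for 45 min at 30 °C in MOPS pH 7.2 buffer with 15 mM MgCl2 and 100 μM ATP plus [γ-32P]ATP. After avidin capture on P81 filters and phosphoric acid washes, 32P incorporation was counted by scintillation.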

U2OS = test: 72-h MTT cytotoxicity assay U2OS; assay type: cell-based; settings: Homo sapiens, Table 5, Bone osteosarcoma
Method: (§3) MTT cytotoxicity assay. […] Standard 72-h MTT (thiazolyl blue; 3-[4,5-dimethylthiazol-2-yl]-2,5-diphenyltetrazolium bromide) assays were performed (Haselsberger, K.; Peterson, D. C.; Thomas, D. G.; Darling, J. L. Anti Cancer Drugs 1996, 7, 331-8; Loveland, B. E.; Johns, T. G.; Mackay, I. R.; Vaillant, F.; Wang, Z. X.; Hertzog, P. J. Biochemistry International 1992, 27, 501-10). In short: cells were seeded into 96-well plates according to doubling time and incubated overnight at 37° C. Test compounds were made up in DMSO and a 1/3 dilution series prepared in 100 μL cell media, added to cells (in triplicates) and incubated for 72 ho at 37° C. MTT was made up as a stock of 5 mg/mL in cell media and filter-sterilised. Media was removed from cells followed by a wash with 200 μL PBS.
(§4) MTT solution was then added at 20 μL per well and incubated in the dark at 37° C. for 4 h. MTT solution was removed and cells again washed with 200 μL PBS. MTT dye was solubilised with 200 μL per well of DMSO with agitation.

K562 = test: 72-h MTT cytotoxicity assay K562; assay type: cell-based; settings: Homo sapiens, K562, 72 h; Table 5; Chronic myelogenous leukaemia
Method: as §3, §4

SKUT-1 = test: 72-h MTT cytotoxicity assay SKUT-1; assay type: cell-based; settings: Homo sapiens, SK-UT-1, 72 h; Table 5; Leiomyosarcoma
Method: as §3, §4

A549 = test: 72-h MTT cytotoxicity assay A549; assay type: cell-based; settings: Homo sapiens, A549, 72 h
Method in brief: (§5)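 Seed cells per doubling time and incubate overnight at 37° C. Add 1/3 dilution series of compound in media, triplicate, 72 h at 37° C. Wash with PBS, add MTT for 4 h in the dark, wash again, solubilise dye in DMSO.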

[1] = molecular target: CaMKII (calmodulin-depependent kinase II); test: Kinase assay CaMKII; assay type: biochemical; settings: Table 3 selectivity panel; read-out: Kinase specificity IC50 CaMKII
Method: (§6) Kinase assays. […] This was achieved by measurement of incorporation of radioactive phosphate from ATP into appropriate polypeptide substrates. Recombinant protein kinases and kinase complexes were produced or obtained commercially. Assays were performed using 96-well plates and appropriate assay buffers (typically 25 mM β-glycerophosphate, 20 mM MOPS, 5 mM EGTA, 1 mM DTT, 1 mM […], pH 7.4), into which were added 2-4 μg of active enzyme with appropriate substrates. The reactions were initiated by addition of Mg/ATP mix (15 mM MgCl2+100 μM ATP with 30-50 kBq per well of [γ-^32P]-ATP) and mixtures incubated as required at 30° C. Reactions were stopped on ice, followed by filtration through p81 filterplates or GF/C filterplates (Whatman Polyfiltronics, Kent, UK). After washing 3 times with 75 mM aq orthophosphoric acid, plates were dried, scintillant added and incorporated radioactivity measured in a scintillation counter (TopCount, Packard Instruments, Pangbourne, Berks, UK). Compounds for kinase assay were made-up as 10 mM stocks in DMSO and diluted into 10% DMSO inrassay buffer.

GSK-3β = GSK-3β (Homo sapiens, UniProt P49841); test: Kinase assay GSK-3β; assay type: biochemical
Method in brief: as §1

CCRF-CEM = test: 72-h MTT cytotoxicity assay CCRF-CEM; assay type: cell-based; settings: Homo sapiens, Table 5, Leukemia
Method: as §3, §4

Hela = test: 72-h MTT cytotoxicity assay Hela; assay type: cell-based; settings: Homo sapiens, Table 5, Cervix
Method: as §3, §4

Hs27 = test: 72-h MTT cytotoxicity assay Hs27; assay type: cell-based; settings: Homo sapiens, HS27, 72 h; Table 5; Foreskin fibroblast (non-transformed)
Method: as §3, §4

WI38 = test: 72-h MTT cytotoxicity assay WI38; assay type: cell-based; settings: Homo sapiens, WI-38, 72 h; Table 5; Foetal lung fibroblast (non-transformed)
Method: as §3, §4

DU-145 = test: 72-h MTT cytotoxicity assay DU-145; assay type: cell-based; settings: Homo sapiens, DU-145, 72 h; Table 5; Prostate
Method: as §3, §4

HT29 = test: 72-h MTT cytotoxicity assay HT29; assay type: cell-based; settings: Homo sapiens, HT-29, 72 h
Method in brief: as §5

Saos-2 = test: 72-h MTT cytotoxicity assay Saos-2; assay type: cell-based; settings: Homo sapiens, SAOS-2, 72 h
Method in brief: as §5

CDK9/cyclin T1 = CDK9/cyclin T1 (Homo sapiens, UniProt P50750); test: CDK9 assay; assay type: biochemical
Method in brief: as §2

CDK4/cyclin D1 = CDK4/cyclin D1 (Homo sapiens, UniProt P11802); test: Kinase assay CDK4/cyclin D1; assay type: biochemical
Method in brief: as §1

SK-N-MC = test: 72-h MTT cytotoxicity assay SK-N-MC; assay type: cell-based; settings: Homo sapiens, Table 5, Neuroblastoma
Method: as §3, §4

[2] = molecular target: SAPK2a (stress-activated protein kinase 2a) (Homo sapiens, UniProt Q16539); test: Kinase assay SAPK2a; assay type: biochemical; settings: Table 3 selectivity panel; read-out: Kinase specificity IC50 SAPK2a
Method: as §6

CDK4/cyclin D1, sequence (P11802 whole entry): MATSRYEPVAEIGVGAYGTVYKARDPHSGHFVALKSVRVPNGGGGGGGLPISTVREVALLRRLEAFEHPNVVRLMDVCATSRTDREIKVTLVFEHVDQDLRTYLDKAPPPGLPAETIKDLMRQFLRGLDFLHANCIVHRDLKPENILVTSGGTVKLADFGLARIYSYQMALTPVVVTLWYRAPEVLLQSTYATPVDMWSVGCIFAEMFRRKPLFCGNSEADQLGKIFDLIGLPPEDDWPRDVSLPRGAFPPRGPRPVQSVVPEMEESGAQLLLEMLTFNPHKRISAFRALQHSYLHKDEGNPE
CDK4/cyclin D1, sequence (P24385 whole entry partner): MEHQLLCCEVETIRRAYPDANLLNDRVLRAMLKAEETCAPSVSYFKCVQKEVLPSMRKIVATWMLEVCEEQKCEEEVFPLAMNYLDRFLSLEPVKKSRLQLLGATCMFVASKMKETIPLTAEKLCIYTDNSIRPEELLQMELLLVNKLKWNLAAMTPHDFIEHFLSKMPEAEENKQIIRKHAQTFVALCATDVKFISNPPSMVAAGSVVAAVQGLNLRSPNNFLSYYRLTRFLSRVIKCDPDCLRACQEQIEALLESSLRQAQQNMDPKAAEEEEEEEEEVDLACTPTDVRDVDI
CDK9/cyclin T1, sequence (P50750 whole entry): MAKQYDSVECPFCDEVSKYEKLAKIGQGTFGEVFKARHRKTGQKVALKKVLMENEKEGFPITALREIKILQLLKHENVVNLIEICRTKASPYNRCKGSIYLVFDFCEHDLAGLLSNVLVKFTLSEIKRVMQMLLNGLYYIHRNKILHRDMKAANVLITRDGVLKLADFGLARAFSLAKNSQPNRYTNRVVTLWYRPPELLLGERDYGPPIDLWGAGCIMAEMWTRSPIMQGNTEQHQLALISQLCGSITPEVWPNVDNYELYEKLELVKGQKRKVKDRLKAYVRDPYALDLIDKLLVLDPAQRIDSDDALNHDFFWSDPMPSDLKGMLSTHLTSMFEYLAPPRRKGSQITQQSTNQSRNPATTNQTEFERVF
CDK9/cyclin T1, sequence (O60563 whole entry partner): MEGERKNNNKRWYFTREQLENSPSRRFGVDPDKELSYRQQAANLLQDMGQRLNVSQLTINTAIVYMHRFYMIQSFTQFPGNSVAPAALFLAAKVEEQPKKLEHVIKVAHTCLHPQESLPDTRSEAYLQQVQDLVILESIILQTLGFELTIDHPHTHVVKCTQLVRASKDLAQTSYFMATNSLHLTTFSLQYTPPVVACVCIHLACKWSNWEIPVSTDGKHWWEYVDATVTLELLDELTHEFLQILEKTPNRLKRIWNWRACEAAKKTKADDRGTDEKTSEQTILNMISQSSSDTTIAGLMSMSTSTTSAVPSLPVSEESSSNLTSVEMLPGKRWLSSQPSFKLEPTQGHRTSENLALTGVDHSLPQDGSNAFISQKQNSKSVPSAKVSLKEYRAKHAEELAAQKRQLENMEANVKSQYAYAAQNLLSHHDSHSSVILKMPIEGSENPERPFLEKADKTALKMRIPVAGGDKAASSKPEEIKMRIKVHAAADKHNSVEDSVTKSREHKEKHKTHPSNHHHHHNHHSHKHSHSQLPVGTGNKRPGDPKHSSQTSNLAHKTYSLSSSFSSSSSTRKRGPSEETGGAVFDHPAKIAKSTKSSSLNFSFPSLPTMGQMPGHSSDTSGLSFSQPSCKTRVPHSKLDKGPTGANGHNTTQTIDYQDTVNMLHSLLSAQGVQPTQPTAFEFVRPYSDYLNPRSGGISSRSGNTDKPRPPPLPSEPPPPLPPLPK
CDK1/cyclin B, sequence (P06493 whole entry): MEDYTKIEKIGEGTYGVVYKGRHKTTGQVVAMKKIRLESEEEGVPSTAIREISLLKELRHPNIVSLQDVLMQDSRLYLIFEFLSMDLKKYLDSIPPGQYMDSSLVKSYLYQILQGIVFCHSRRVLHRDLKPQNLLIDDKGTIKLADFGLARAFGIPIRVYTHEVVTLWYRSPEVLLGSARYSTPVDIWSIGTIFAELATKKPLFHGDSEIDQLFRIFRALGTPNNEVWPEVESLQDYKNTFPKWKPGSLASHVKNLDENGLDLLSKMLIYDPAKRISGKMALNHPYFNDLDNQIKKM
CDK1/cyclin B, sequence (P14635 whole entry partner): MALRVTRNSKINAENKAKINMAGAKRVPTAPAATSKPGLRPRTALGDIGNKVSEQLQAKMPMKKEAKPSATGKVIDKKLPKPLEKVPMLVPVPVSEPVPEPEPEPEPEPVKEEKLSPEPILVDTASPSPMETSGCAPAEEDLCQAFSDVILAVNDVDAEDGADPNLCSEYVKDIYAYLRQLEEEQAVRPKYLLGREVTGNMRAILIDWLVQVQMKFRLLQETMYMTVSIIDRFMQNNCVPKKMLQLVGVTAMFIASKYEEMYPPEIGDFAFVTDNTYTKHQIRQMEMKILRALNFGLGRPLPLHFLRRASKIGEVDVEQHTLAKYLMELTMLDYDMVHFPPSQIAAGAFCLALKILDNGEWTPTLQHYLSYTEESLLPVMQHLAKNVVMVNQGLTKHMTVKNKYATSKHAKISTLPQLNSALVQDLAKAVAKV
CDK7/cyclin H, sequence (P50613 whole entry): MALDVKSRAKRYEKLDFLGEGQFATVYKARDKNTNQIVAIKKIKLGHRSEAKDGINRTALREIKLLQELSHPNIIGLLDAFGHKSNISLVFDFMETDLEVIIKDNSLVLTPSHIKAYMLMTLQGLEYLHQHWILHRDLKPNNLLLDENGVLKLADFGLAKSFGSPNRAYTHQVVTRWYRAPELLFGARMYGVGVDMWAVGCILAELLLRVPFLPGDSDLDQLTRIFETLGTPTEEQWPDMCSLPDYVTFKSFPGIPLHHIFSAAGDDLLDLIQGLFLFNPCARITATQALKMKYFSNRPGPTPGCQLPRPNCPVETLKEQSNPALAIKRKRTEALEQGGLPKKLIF
GSK-3β, sequence (P49841 whole entry): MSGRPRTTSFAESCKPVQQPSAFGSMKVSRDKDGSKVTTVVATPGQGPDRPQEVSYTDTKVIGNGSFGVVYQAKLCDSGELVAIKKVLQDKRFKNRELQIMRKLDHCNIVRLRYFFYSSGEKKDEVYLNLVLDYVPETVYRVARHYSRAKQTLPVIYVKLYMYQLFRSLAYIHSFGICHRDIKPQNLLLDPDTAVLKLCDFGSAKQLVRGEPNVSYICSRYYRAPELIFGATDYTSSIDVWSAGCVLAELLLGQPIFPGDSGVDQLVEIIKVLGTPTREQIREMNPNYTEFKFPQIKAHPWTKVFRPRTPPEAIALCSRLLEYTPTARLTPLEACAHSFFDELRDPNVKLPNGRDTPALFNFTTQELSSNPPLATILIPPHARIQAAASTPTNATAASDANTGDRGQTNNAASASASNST
SAPK2a (stress-activated protein kinase 2a), sequence (Q16539 whole entry, species assumed): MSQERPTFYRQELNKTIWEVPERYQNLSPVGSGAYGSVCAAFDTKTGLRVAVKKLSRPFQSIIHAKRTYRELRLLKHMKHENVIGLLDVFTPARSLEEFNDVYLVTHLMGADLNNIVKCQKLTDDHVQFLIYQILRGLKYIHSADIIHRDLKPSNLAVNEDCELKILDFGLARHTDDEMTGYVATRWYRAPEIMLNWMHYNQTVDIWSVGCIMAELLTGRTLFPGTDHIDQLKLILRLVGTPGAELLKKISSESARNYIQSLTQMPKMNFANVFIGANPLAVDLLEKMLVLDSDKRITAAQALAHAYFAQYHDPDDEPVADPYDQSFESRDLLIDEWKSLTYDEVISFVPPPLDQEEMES

Work on `CNc1nc(C)c(-c2ccnc(Nc3ccc(N4CCN(Cc5ccccc5)CC4)cc3)n2)s1` [Compound 11, [4-(4-Benzyl-piperazin-1-yl)-phenyl]-[4-(4-methyl-2-methylamino-thiazol-5-yl)-pyrimidin-2-yl]-amine] yielded an IC50 (CDK1/cyclin B; Table 2, read-out: Kinase Inhibition IC50 CDK1 cyclin B) of 2.4 µM, an IC50 (CDK1/cyclin B; Table 3 selectivity panel, read-out: Kinase specificity IC50 CDK1/B1) of 2.4 µM and an IC50 (CDK7/cyclin H; Table 2, read-out: Kinase Inhibition IC50 CDK7 cyclin H) of 0.019 µM. It also gave an IC50 (CDK7/cyclin H; Table 3 selectivity panel, CDK7/cyclin H/MAT 1 complex, read-out: Kinase specificity IC50 CDK7/H) of 0.019 µM, an IC50 (U2OS) of 2.3 µM and an IC50 (K562) of 2.1 µM. It also gave an IC50 (SKUT-1) of 0.8 µM, an IC50 (A549; Table 4) of 2.2 µM and an IC50 (A549; Table 5, Lung) of 2.2 µM. For the same compound, the IC50 [1] was 56 µM, the IC50 (GSK-3β; Table 2, read-out: Kinase Inhibition IC50 GSK-3β) was 6 µM and the IC50 (GSK-3β; Table 3 selectivity panel, glycogen synthase kinase 3β, read-out: Kinase specificity IC50 GSK-3) was 6 µM. For the same compound, the IC50 (CCRF-CEM) was 0.5 µM, the IC50 (Hela) was 6.2 µM and the IC50 (Hs27) was 19 µM. The IC50 (WI38) was 22 µM, the IC50 (DU-145) was 1 µM and the IC50 (HT29; Table 4) was 1.6 µM. The IC50 (HT29; Table 5, Colon) was 1.6 µM, the IC50 (Saos-2; Table 4) was 3.6 µM and the IC50 (Saos-2; Table 5, Bone osteosarcoma) was 3.7 µM. It also gave an IC50 (CDK9/cyclin T1; Table 2, read-out: Kinase Inhibition IC50 CDK9 cyclin T1) of 1.1 µM, an IC50 (CDK9/cyclin T1; Table 3 selectivity panel, read-out: Kinase specificity IC50 CDK9/T1) of 1.1 µM and an IC50 (CDK4/cyclin D1; Table 2, read-out: Kinase Inhibition IC50 CDK4 cyclin D1) of 0.0098 µM. For the same compound, the IC50 (CDK4/cyclin D1; Table 3 selectivity panel, read-out: Kinase specificity IC50 CDK4/D1) was 0.0098 µM, the IC50 (SK-N-MC) was 0.6 µM and the IC50 [2] was > 100 µM.
